Source: paper PMC8700221, “Long-Term Treatment with Atypical Antipsychotic Iloperidone Modulates Cytochrome P450 2D (CYP2D) Expression and Activity in the Liver and Brain via Different Mechanisms” (Cells, 2021)
pKi: −log10 of the molar value.

How the values were obtained:
Assay type in all cases: biochemical
[1] = system: T1, CYP2D (rat liver microsomes); assay: bufuralol […]'-hydroxylation in liver microsomes, HPLC with fluorometric detection; settings: NADPH-generating system; 0.5 mg protein/mL; no inhibitor; CYP2D isoenzymes mixed
T1 construct: gene Cyp2d1; native enzymes in pooled liver microsomes of control male rats (n = 10); CYP2D1 and CYP2D2 named most abundant in liver

[2] = system: T2, CYP2D (rat brain microsomes); assay: bufuralol […]'-hydroxylation in whole-brain microsomes, HPLC with fluorometric detection; settings: NADPH-generating system; 2 mg protein/mL; no inhibitor; CYP2D isoenzymes mixed
T2 construct: gene Cyp2d4; native enzymes in pooled whole-brain microsomes of control male rats (n = 10); CYP2D4 named main brain form

[3] = target: T2, CYP2D (rat brain microsomes); assay: bufuralol […]'-hydroxylation in whole-brain microsomes, HPLC with fluorometric detection, Dixon plot; settings: competitive; bufuralol 50, 100 and 200 µM; iloperidone 25-500 µM; 2 mg protein/mL; NADPH-generating system; CYP2D isoenzymes mixed
[4] = target: T1, CYP2D (rat liver microsomes); assay: bufuralol […]'-hydroxylation in liver microsomes, HPLC with fluorometric detection, Dixon plot; settings: competitive; bufuralol 5, 10 and 20 µM; iloperidone 1-250 µM; 0.5 mg protein/mL; NADPH-generating system; CYP2D isoenzymes mixed

| Km [1] [µM] | Km [2] [µM] | pKi [3] | pKi [4] | Structure (SMILES) |
| --- | --- | --- | --- | --- |
| 8.26 | 492 | – | – | CCc1cccc2cc(C(O)CNC(C)(C)C)oc12 (stereo not shown) [bufuralol] |
| – | – | 3.34 | 4.94 | COc1cc(C(C)=O)ccc1OCCCN1CCC(c2noc3cc(F)ccc23)CC1 [iloperidone] |
